Measurements published in US9156845B2, “4-(substituted amino)-7H-pyrrolo[2,3-d] pyrimidines as LRRK2 inhibitors” (Pfizer Inc., priority 2012, dated 2015).

Assays:
Assay in all cases: ActivX kinase probe assay (human PBMC)
Type in all cases: binding
AKT1 = AKT1 (Homo sapiens (Human), UniProt P31749); conditions: AKT1, read-out: percent inhibition
BRAF = BRAF (Homo sapiens (Human), UniProt P15056); conditions: BRAF, read-out: percent inhibition
CaMK1d = CaMK1d (Homo sapiens (Human), UniProt Q8IU85); conditions: CaMK1d, read-out: percent inhibition
CaMK2d = CaMK2d (Homo sapiens (Human), UniProt Q13557); conditions: CaMK2d, read-out: percent inhibition
CDC2 = CDC2 (Homo sapiens (Human), UniProt P06493); conditions: CDC2, read-out: percent inhibition
CDC2, sequence (P06493 whole entry): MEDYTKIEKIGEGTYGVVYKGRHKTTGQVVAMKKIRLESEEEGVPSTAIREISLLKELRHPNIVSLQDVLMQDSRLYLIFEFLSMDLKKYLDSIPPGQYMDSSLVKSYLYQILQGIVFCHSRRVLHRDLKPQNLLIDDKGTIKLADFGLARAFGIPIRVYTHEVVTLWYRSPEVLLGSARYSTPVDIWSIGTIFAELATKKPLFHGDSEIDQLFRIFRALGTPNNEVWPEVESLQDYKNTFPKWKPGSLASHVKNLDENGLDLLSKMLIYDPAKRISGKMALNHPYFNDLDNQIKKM

FGR = FGR (Homo sapiens (Human), UniProt P09769); conditions: FGR, read-out: percent inhibition
FRAP = FRAP (Homo sapiens (Human), UniProt P42345); conditions: FRAP, read-out: percent inhibition
GCK = GCK (Homo sapiens (Human), UniProt Q12851); conditions: GCK, read-out: percent inhibition
GCK, sequence (Q12851 whole entry): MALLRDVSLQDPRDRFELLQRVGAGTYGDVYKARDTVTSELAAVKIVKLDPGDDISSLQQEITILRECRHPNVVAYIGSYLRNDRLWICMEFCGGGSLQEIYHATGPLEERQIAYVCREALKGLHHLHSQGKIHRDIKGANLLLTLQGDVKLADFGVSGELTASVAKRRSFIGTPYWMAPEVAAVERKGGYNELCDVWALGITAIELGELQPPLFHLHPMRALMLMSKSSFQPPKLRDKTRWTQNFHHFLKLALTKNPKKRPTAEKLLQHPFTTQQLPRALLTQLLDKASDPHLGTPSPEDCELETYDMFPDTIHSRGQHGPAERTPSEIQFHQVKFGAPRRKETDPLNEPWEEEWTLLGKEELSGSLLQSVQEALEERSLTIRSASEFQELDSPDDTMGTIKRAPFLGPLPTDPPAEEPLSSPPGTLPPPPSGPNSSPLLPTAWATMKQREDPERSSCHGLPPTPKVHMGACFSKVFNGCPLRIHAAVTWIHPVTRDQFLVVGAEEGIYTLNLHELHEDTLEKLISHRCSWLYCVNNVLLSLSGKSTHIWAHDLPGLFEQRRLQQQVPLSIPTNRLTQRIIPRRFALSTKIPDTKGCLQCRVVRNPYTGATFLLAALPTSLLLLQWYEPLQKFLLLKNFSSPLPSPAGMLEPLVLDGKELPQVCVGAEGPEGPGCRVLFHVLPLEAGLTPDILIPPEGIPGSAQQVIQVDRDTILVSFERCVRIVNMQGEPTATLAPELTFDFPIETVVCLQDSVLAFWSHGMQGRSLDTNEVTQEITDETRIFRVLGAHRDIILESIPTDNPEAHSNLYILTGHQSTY

IKKa = IKKa (Homo sapiens (Human), UniProt O15111); conditions: IKKa, read-out: percent inhibition
JAK1 = JAK1 (Homo sapiens (Human), UniProt P23458); conditions: JAK1, read-out: percent inhibition
JAK2 domain2 = JAK2 domain2 (Homo sapiens (Human), UniProt O60674); conditions: JAK2 domain2, read-out: percent inhibition
LATS2 = LATS2 (Homo sapiens (Human), UniProt Q9NRM7); conditions: LATS2, read-out: percent inhibition
LYN = LYN (Homo sapiens (Human), UniProt P07948); conditions: LYN, read-out: percent inhibition
MAP2K3 = MAP2K3 (Homo sapiens (Human), UniProt P46734); conditions: MAP2K3, read-out: percent inhibition
MAP2K3, sequence (P46734 whole entry): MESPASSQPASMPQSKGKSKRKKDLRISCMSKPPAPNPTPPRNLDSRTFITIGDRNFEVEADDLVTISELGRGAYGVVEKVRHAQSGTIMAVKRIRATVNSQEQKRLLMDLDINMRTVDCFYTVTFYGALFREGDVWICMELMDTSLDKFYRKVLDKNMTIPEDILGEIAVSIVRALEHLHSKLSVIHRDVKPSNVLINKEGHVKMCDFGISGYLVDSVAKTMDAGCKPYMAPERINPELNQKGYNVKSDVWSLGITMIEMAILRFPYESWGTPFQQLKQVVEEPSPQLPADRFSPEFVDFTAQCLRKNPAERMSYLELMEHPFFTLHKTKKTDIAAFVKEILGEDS

MAP3K1 = MAP3K1 (Homo sapiens (Human), UniProt Q13233); conditions: MAP3K1, read-out: percent inhibition
MAP3K1, sequence (Q13233 whole entry): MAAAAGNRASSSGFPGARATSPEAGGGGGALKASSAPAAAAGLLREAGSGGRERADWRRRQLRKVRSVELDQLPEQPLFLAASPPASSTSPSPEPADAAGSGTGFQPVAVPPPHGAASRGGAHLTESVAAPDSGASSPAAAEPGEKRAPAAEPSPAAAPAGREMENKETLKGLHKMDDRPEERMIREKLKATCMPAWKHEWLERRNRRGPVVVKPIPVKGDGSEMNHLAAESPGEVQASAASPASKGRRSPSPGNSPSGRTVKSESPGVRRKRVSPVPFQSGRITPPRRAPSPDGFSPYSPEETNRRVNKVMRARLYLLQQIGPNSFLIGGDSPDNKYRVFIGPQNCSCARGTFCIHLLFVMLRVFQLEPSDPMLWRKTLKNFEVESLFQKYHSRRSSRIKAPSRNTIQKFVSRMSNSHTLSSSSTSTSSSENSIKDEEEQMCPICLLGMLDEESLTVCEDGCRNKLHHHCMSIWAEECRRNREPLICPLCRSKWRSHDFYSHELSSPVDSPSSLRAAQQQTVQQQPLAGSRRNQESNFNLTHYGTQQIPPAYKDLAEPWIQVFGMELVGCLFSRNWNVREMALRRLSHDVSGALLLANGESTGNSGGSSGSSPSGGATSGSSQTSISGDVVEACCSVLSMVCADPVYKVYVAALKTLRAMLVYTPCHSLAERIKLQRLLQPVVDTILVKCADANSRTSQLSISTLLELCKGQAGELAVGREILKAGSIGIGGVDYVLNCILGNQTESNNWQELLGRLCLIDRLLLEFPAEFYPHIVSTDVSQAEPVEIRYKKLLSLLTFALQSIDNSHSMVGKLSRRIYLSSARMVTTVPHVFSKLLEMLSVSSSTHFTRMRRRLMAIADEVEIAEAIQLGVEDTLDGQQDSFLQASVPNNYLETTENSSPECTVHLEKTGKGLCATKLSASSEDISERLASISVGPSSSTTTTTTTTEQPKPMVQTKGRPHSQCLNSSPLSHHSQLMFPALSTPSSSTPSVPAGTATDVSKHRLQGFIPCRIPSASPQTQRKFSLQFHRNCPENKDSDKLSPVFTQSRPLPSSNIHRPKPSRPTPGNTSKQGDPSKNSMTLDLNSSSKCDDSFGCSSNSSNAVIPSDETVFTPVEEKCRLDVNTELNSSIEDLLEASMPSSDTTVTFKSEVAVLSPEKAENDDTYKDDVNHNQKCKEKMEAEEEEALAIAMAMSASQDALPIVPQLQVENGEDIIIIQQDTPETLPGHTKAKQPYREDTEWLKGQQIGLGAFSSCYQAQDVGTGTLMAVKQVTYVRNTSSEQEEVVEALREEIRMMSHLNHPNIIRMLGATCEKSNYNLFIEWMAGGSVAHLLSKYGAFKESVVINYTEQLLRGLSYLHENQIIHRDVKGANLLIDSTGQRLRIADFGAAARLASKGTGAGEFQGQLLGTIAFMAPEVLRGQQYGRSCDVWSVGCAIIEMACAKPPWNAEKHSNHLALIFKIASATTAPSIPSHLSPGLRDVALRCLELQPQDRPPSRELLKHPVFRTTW

MAST3 = MAST3 (Homo sapiens (Human), UniProt O60307); conditions: MAST3, read-out: percent inhibition
NDR1 = NDR1 (Homo sapiens (Human), UniProt Q15208); conditions: NDR1, read-out: percent inhibition
NDR2 = NDR2 (Homo sapiens (Human), UniProt Q9Y2H1); conditions: NDR2, read-out: percent inhibition
NuaK2 = NuaK2 (Homo sapiens (Human), UniProt Q9H093); conditions: NuaK2, read-out: percent inhibition
NuaK2, sequence (Q9H093 whole entry): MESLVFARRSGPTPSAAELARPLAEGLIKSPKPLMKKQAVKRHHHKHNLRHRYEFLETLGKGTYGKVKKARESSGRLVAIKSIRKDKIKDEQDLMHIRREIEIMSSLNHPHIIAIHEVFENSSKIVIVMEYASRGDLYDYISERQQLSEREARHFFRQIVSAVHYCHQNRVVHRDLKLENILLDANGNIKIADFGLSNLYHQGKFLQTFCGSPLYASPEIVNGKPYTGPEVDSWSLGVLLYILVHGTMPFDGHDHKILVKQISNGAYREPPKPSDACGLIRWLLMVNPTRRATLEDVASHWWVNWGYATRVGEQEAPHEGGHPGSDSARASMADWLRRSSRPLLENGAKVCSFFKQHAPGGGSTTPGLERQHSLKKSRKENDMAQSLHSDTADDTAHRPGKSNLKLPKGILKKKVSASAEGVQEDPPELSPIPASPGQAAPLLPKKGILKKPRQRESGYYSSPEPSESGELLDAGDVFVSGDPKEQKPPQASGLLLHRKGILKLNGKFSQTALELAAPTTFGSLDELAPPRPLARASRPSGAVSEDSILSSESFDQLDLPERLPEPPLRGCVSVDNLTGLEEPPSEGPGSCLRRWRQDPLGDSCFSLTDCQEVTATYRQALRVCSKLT

p70S6K = p70S6K (Homo sapiens (Human), UniProt P23443); conditions: p70S6K, read-out: percent inhibition
p70S6K, p70S6Kb = system: p70S6K, p70S6Kb
PCTAIRE2, PCTAIRE3 = system: PCTAIRE2, PCTAIRE3
PI4KB = PI4KB (Homo sapiens (Human), UniProt Q9UBF8); conditions: PI4KB, read-out: percent inhibition
PIK3CB = PIK3CB (Homo sapiens (Human), UniProt P42338); conditions: PIK3CB, read-out: percent inhibition
PIP4K2A = PIP4K2A (Homo sapiens (Human), UniProt P48426); conditions: PIP4K2A, read-out: percent inhibition
PITSLRE = system: PITSLRE
PKD2 = PKD2 (Homo sapiens (Human), UniProt Q9BZL6); conditions: PKD2, read-out: percent inhibition
RSK1 domain1 = RSK1 domain1 (Homo sapiens (Human), UniProt Q15418); conditions: RSK1 domain1, read-out: percent inhibition
SGK3 = SGK3 (Homo sapiens (Human), UniProt Q96BR1); conditions: SGK3, read-out: percent inhibition
SGK3, sequence (Q96BR1 whole entry): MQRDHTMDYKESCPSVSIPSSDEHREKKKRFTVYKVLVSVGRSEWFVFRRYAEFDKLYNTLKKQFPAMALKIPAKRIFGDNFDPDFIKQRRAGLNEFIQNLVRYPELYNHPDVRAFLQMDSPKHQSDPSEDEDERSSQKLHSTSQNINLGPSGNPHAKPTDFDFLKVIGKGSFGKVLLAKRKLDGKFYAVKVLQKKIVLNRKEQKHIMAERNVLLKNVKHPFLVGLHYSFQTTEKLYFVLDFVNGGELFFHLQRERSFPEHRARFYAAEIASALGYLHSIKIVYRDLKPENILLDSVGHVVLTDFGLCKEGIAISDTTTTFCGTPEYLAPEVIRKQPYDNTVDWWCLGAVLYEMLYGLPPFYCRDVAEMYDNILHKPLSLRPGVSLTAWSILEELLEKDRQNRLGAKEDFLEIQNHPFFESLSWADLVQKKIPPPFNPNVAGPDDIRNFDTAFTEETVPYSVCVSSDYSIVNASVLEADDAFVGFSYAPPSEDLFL

SLK = SLK (Homo sapiens (Human), UniProt Q9H2G2); conditions: SLK, read-out: percent inhibition
SMG1 = SMG1 (Homo sapiens (Human), UniProt Q96Q15); conditions: SMG1, read-out: percent inhibition
SRC = SRC (Homo sapiens (Human), UniProt P12931); conditions: SRC, read-out: percent inhibition
STLK5 = STLK5 (Homo sapiens (Human), UniProt Q7RTN6); conditions: STLK5, read-out: percent inhibition
TAO2 = TAO2 (Homo sapiens (Human), UniProt Q9UL54); conditions: TAO2, read-out: percent inhibition
ZAP70 = ZAP70 (Homo sapiens (Human), UniProt P43403); conditions: ZAP70, read-out: percent inhibition

BRAF, sequence (P15056 whole entry): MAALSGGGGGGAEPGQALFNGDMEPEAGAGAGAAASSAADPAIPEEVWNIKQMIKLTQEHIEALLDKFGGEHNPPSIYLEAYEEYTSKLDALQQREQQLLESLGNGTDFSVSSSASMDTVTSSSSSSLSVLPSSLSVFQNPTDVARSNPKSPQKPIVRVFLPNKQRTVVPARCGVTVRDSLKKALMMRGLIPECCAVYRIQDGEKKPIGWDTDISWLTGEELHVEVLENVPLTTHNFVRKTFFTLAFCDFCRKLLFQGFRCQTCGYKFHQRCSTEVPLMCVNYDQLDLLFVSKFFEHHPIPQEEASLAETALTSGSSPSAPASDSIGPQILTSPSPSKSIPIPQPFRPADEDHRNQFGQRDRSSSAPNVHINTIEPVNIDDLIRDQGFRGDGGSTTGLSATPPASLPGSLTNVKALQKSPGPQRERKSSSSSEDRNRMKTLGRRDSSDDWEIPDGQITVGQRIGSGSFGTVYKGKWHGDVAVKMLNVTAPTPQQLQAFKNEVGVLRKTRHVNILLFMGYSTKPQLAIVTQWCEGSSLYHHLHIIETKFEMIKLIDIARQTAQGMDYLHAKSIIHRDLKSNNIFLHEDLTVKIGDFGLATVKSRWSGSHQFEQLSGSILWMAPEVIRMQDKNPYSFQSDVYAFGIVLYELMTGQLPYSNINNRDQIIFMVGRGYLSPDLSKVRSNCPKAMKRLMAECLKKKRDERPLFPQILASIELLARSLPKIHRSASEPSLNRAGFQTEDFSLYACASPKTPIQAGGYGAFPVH

With `Cn1cc(-c2c[nH]c3ncnc(N4CCOCC4)c23)cc1C#N` [Example 217, 1-methyl-4-[4-(morpholin-4-yl)-7H-pyrrolo[2,3-d]pyrimidin-5-yl]-1H-pyrrole-2-carbonitrile] the inhibition at 0.1 µM (AKT1; 0.1 μM) was 5.5%, the inhibition at 1 µM (AKT1; 1 μM) was -3.6% and the inhibition at 0.1 µM (BRAF; 0.1 μM) was -8.4%. For the same compound, the inhibition at 1 µM (BRAF; 1 μM) was -10.4%, the inhibition at 0.1 µM (CaMK1d; 0.1 μM) was 11.7% and the inhibition at 1 µM (CaMK1d; 1 μM) was 3.1%. For the same compound, the inhibition at 0.1 µM (CaMK2d; 0.1 μM) was 9.8%, the inhibition at 1 µM (CaMK2d; 1 μM) was 16.1% and the inhibition at 0.1 µM (CDC2; 0.1 μM) was 28.7%. For the same compound, the inhibition at 1 µM (CDC2; 1 μM) was 24.4%, the inhibition at 0.1 µM (FGR; 0.1 μM) was -1.2% and the inhibition at 1 µM (FGR; 1 μM) was -0.5%. The inhibition at 0.1 µM (FRAP; 0.1 μM) was 0.7%, the inhibition at 1 µM (FRAP; 1 μM) was 0.9% and the inhibition at 0.1 µM (GCK; 0.1 μM) was -5.2%. For the same compound, the inhibition at 1 µM (GCK; 1 μM) was 27.2%, the inhibition at 0.1 µM (IKKa; 0.1 μM) was -2.5% and the inhibition at 1 µM (IKKa; 1 μM) was -3.7%. It also gave an inhibition at 0.1 µM (JAK1; 0.1 μM) of -3%, an inhibition at 1 µM (JAK1; 1 μM) of 11.4% and an inhibition at 0.1 µM (JAK2 domain2; 0.1 μM) of 4.8%. The inhibition at 1 µM (JAK2 domain2; 1 μM) was -6.4%, the inhibition at 0.1 µM (LATS2; 0.1 μM) was 5.8% and the inhibition at 1 µM (LATS2; 1 μM) was -23.7%. The inhibition at 0.1 µM (LYN; 0.1 μM) was 8.3%, the inhibition at 1 µM (LYN; 1 μM) was -19.2% and the inhibition at 0.1 µM (MAP2K3; 0.1 μM) was 2.5%. For the same compound, the inhibition at 1 µM (MAP2K3; 1 μM) was 3.3%, the inhibition at 0.1 µM (MAP3K1; 0.1 μM) was -17.3% and the inhibition at 1 µM (MAP3K1; 1 μM) was 14.8%. For the same compound, the inhibition at 0.1 µM (MAST3; 0.1 μM) was -11.7%, the inhibition at 1 µM (MAST3; 1 μM) was 0.4% and the inhibition at 0.1 µM (NDR1; 0.1 μM) was 16.3%. The inhibition at 1 µM (NDR1; 1 μM) was -17.7%, the inhibition at 0.1 µM (NDR2; 0.1 μM) was 28.9% and the inhibition at 1 µM (NDR2; 1 μM) was -6%. The inhibition at 0.1 µM (NuaK2; 0.1 μM) was 1.3%, the inhibition at 1 µM (NuaK2; 1 μM) was 24.9% and the inhibition at 0.1 µM (p70S6K; 0.1 μM) was 3.5%. For the same compound, the inhibition at 1 µM (p70S6K; 1 μM) was -9.6%, the percent inhibition (p70S6K, p70S6Kb; 0.1 μM) was 5.5% and the percent inhibition (p70S6K, p70S6Kb; 1 μM) was 5.4%. The percent inhibition (PCTAIRE2, PCTAIRE3; 0.1 μM) was −2.6%, the percent inhibition (PCTAIRE2, PCTAIRE3; 1 μM) was 15.1% and the inhibition at 0.1 µM (PI4KB; 0.1 μM) was 9.9%. It also gave an inhibition at 1 µM (PI4KB; 1 μM) of -0.5%, an inhibition at 0.1 µM (PIK3CB; 0.1 μM) of -5.3% and an inhibition at 1 µM (PIK3CB; 1 μM) of -29.7%. For the same compound, the inhibition at 0.1 µM (PIP4K2A; 0.1 μM) was 7.8%, the inhibition at 1 µM (PIP4K2A; 1 μM) was 8.2% and the percent inhibition (PITSLRE; 0.1 μM) was −6.7%. The percent inhibition (PITSLRE; 1 μM) was 6.6%, the inhibition at 0.1 µM (PKD2; 0.1 μM) was 5.8% and the inhibition at 1 µM (PKD2; 1 μM) was 4.5%. For the same compound, the inhibition at 0.1 µM (RSK1 domain1; 0.1 μM) was 27.6%, the inhibition at 1 µM (RSK1 domain1; 1 μM) was 45.6% and the inhibition at 0.1 µM (SGK3; 0.1 μM) was 8.5%. For the same compound, the inhibition at 1 µM (SGK3; 1 μM) was 16.9%, the inhibition at 0.1 µM (SLK; 0.1 μM) was 22.5% and the inhibition at 1 µM (SLK; 1 μM) was 39.1%. It also gave an inhibition at 0.1 µM (SMG1; 0.1 μM) of 1.5%, an inhibition at 1 µM (SMG1; 1 μM) of -6.1% and an inhibition at 0.1 µM (SRC; 0.1 μM) of -1%. It also gave an inhibition at 1 µM (SRC; 1 μM) of 1.1%, an inhibition at 0.1 µM (STLK5; 0.1 μM) of -6.9% and an inhibition at 1 µM (STLK5; 1 μM) of -11.5%. It also gave an inhibition at 0.1 µM (TAO2; 0.1 μM) of -20.2%, an inhibition at 1 µM (TAO2; 1 μM) of -18.4% and an inhibition at 0.1 µM (ZAP70; 0.1 μM) of -25%. The inhibition at 1 µM (ZAP70; 1 μM) was -6%.
